We go through 42 compounds from ChEMBL document CHEMBL1137798, “Evaluation of natural products as inhibitors of human immunodeficiency virus type 1 (HIV-1) reverse transcriptase” (J Nat Prod, 1991).

Where a name gives a salt, the structure may show the parent alone. A value given as a limit tells only on which side of the number the result lay.

The target of this test is Human immunodeficiency virus type 1 reverse transcriptase (Human immunodeficiency virus 1, UniProt Q72547). The settings on record: read-out: IC50 (converted).
On to `COc1cc(C[C@H]2c3cc(OC)c(OC)cc3CCN2C)c(Oc2cc3c(cc2OC)-c2c(OC)c(OC)cc4c2[C@H](C3)N(C)CC4)cc1OC` [THALICARPINE], for which the IC50 (as a rule, the point on the concentration scale where inhibition reaches its midpoint) is above 287 µM.

With `CC[C@H]1CN2CCc3cc(OC)c(OC)cc3[C@@H]2C[C@@H]1C[C@H]1NCCc2c1[nH]c1ccc(O)cc21` [TUBULOSINE], the IC50 was above 420 µM.

For the compound `C[C@H](O)C1=C[C@@]2(C=C[C@@H]3C(C(=O)O)=CO[C@@H](O[C@@H]4O[C@H](CO)[C@@H](O)[C@H](O)[C@H]4O)[C@@H]32)OC1=O`, the IC50 was above 438 µM.

As to `C/C=C/C=C1\C=Cc2c(C(=O)OC)coc(=O)c21` [FULVOPLUMIERIN], the IC50 is 184 µM.

`COc1cc2c(cc1O)-c1cc3ccc(OC)c(OC)c3c[n+]1CC2` [COLUMBAMINE IODIDE]: the IC50 was 125 µM.

As to `C[C@H]1C(=O)O[C@@H]2CCN3CC=C(COC(=O)[C@](C)(O)[C@]1(C)O)[C@H]23` [MONOCROTALINE], the IC50 is above 615 µM.

`COc1cccc2c1C(=O)c1c(O)c3c(c(O)c1C2=O)C[C@@](O)(C(C)=O)C[C@@H]3O[C@H]1C[C@H](N)[C@H](O)[C@H](C)O1` [DAUNORUBICIN]: the IC50 is 237 µM.

Take `C=C1c2cc3[nH]ccc3cc2CN2CC[C@@H]1/C(=C\C)C2` [PERICALLINE]: the IC50 is above 757 µM.

Turning to `COc1ccc2c(c1OC)-c1cc(ccc1O)/C=C\C(=O)O[C@H]1C[C@@H]3CCCCN3[C@H]2C1`, the IC50 was above 460 µM.

Turning to `C/C=C1/C[C@@H](C)[C@@](C)(O)C(=O)OCC2=CCN3CC[C@@H](OC1=O)[C@@H]23` [SENECIONINE], the IC50 was above 596 µM.

With `C/C=C1/C(=O)O[C@]23C=C[C@@H]4C(C(=O)OC)=CO[C@H](O[C@@H]12)[C@@H]43` [PLUMERICIN], the IC50 is above 689 µM.

Regarding `COC(=O)[C@@]12OC[C@]34[C@H]([C@@H](O)[C@@H]1O)[C@@]1(C)CC(=O)C(O)=C(C)[C@@H]1C[C@H]3OC(=O)[C@H](OC(=O)/C=C(\C)C(C)C)[C@@H]24` [BRUCEANTIN], the IC50 is above 365 µM.

For the compound `O=c1c(O)c(-c2ccc(O)cc2)oc2cc(O)cc(O)c12` [KAEMPFEROL], the IC50 was below 524 µM.

As to `CC[C@H]1C[C@@H]2CN3CCc4c([nH]c5cc(OC)c(OC)cc45)[C@](C(=O)OC)(C2)[C@H]13` [CONOPHARYNGINE], the IC50 is above 502 µM.

For the compound `C1CN[C@@H]2[C@@H](C1)[C@@H]1CC2([C@H]2CCC[C@H](C3CC[C@@H]4N[C@H]3N3CCC[C@H]5C[C@@H]6C[C@]4(CN4CCCC[C@H]64)[C@@H]53)N2)CN2CCCC[C@H]12` (some centres not stated) [ORMOSININE], the IC50 was above 324 µM.

Turning to `C/C=C1\CN2[C@H]3C[C@@]45c6ccccc6N(C)[C@@H]4[C@@H]2C[C@@H]1[C@@]3(C(=O)OC)C5O` (some centres not stated) [VINCAMAJINE], the IC50 is above 546 µM.

Turning to `C=C(C)[C@@H]1CC[C@]2(CO)CC[C@]3(C)[C@H](CC[C@@H]4[C@@]5(C)CC[C@H](O)C(C)(C)[C@@H]5CC[C@]43C)[C@@H]12` [BETULIN], the IC50 is above 452 µM.

With `CC[C@]12CCc3[nH]c4ccccc4c3CCN(C[C@H]3O[C@H]31)C2` [CONOFLORINE], the IC50 is above 675 µM.

For `COC(=O)C[C@](O)(CCC(C)(C)O)C(=O)O[C@@H]1C(OC)=C[C@]23CCCN2CCc2cc4c(cc2[C@H]13)OCO4` [HARRINGTONINE], the IC50 is above 376 µM.

Turning to `CC(=O)O[C@H]1C(=O)[C@@]2(C)[C@H]([C@H](OC(=O)c3ccccc3)[C@]3(O)C[C@H](OC(=O)[C@H](O)[C@@H](NC(=O)c4ccccc4)c4ccccc4)C(C)=C1C3(C)C)[C@]1(OC(C)=O)CO[C@@H]1C[C@@H]2O` [PACLITAXEL], the IC50 is above 234 µM.

Turning to `C=C(C)[C@H]1Cc2c(ccc3c2O[C@@H]2COc4cc(OC)c(OC)cc4[C@]2(O)C3=O)O1` [ROTENOLONE], the IC50 is above 487 µM.

Turning to `C[C@H]1/C(=C/C(=O)OCCN(C)C)CC[C@H]2[C@H]1C(=O)C[C@H]1C(C)(C)[C@@H](OS(=O)(=O)O)CC[C@]21C` [CASSAINE SULFATE], the IC50 was above 412 µM.

Regarding `COc1cc2c(c3c1c(=O)c1ccccc1n3C)CCC(C)(C)O2` [DIHYDROACRONYCINE], the IC50 was above 618 µM.

For `C/C=C1/CN2[C@H]3C[C@H]1[C@@H](CO)[C@@H]2Cc1c3[nH]c2ccc(O)cc12` [SARPAGINE], the IC50 is above 644 µM.

For `C/C=C(/C)C(=O)O[C@H]1CCN2CC=C(COC(=O)[C@](O)([C@H](C)OC)C(C)(C)O)[C@H]12` [LASIOCARPINE], the IC50 is above 486 µM.

Regarding `C=C[C@H]1C[N@@]2CC[C@H]1C[C@@H]2[C@@H](O)c1ccnc2ccc(OC)cc12` [QUINIDINE SULFATE], the IC50 was above 511 µM.

Regarding `COc1c(O)cc(O)c2c(=O)c(O)c(-c3ccccc3)oc12`, the IC50 is above 734 µM.

For the compound `O=c1c(O)c(-c2ccc(O)c(O)c2)oc2cc(O)cc(O)c12` [QUERCETIN], the IC50 is below 662 µM.

On to `O=C(OC[C@H]1O[C@@H](OC(=O)c2cc(O)c(O)c(OC(=O)c3cc(O)c(O)c(O)c3)c2)[C@H](OC(=O)c2cc(O)c(O)c(OC(=O)c3cc(O)c(O)c(O)c3)c2)[C@@H](OC(=O)c2cc(O)c(O)c(OC(=O)c3cc(O)c(O)c(O)c3)c2)[C@@H]1OC(=O)c1cc(O)c(O)c(OC(=O)c2cc(O)c(O)c(O)c2)c1)c1cc(O)c(O)c(OC(=O)c2cc(O)c(O)c(O)c2)c1` [TANNIC ACID], for which the IC50 was below 29.4 µM.

`C1CCN2C[C@@H]3C[C@@H](CN4CCCC[C@@H]34)[C@H]2C1` [SPARTEINE SULFATE]: the IC50 is above 473 µM.

As for `COc1ccc2cc3[n+](cc2c1OC)CCc1cc2c(cc1-3)OCO2` [BERBERINE CHLORIDE], the IC50 is 269 µM.

For `COC(=O)C1=CO[C@@H](C)[C@@H]2CN3CCc4c([nH]c5ccccc45)[C@@H]3C[C@H]12` [TETRAHYDROALSTONINE], the IC50 is above 567 µM.

Turning to `C1CCN2C[C@@H]3C[C@@H](CN4CCCC[C@@H]34)[C@H]2C1` [SPARTEINE], the IC50 was above 853 µM.

With `COc1c2c(c(O)c3ccoc13)C(=O)[C@H]1c3cc4c(cc3OC[C@H]1O2)OCO4`, the IC50 was above 523 µM.

Take `CC1(C)CC[C@]2(C)CC[C@]3(C)C(=CC[C@@H]4[C@@]5(C)CC[C@H](O)C(C)(C)[C@@H]5CC[C@]43C)[C@@H]2C1` [beta-AMYRIN]: the IC50 is above 469 µM.

As to `CC1=C(O)C(=O)C=C2C1=CC=C1[C@@]2(C)CC[C@@]2(C)[C@@H]3C[C@@H](C)C(=O)[C@@H](O)[C@]3(C)CC[C@]12C` [TINGENIN B], the IC50 is above 458 µM.

On to `C/C=C1/CN(C(C)=O)[C@H]2Cc3c([nH]c4ccccc34)C(=O)C[C@@H]1[C@@H]2C(=O)OC`, for which the IC50 was above 526 µM.

For `O[C@H]1[C@H]2[C@H](O)CCCN2C[C@H]1O` [TRIDOLGOSIR], the IC50 was above 1150 µM.

With `CCC1=C[C@@H]2CN3CCc4c([nH]c5ccccc45)[C@](C(=O)OC)(C2)[C@@H]13` [CATHARANTHINE HYDROCHLORIDE], the IC50 is above 536 µM.

In the case of `COc1cc2c(cc1O)CC[n+]1cc3c(OC)c(OC)ccc3cc1-2` [JATRORRHIZINE CHLORIDE], the IC50 is 190 µM.

Take `COc1c(O)c2c3c(nccc3c1OC)C(C)(C)c1cc(O)ccc1-2` [MELOSMINE]: the IC50 is above 593 µM.

In the case of `COC(=O)C1=CO[C@H](C)[C@@H]2CN3CCc4c([nH]c5cc(OC)ccc45)[C@@H]3C[C@H]12` [RAUNITIDINE], the IC50 is above 523 µM.
